Data taken from patent US20110251238A1, “PPAR AGONIST COMPOSITIONS AND METHODS OF USE” (BIOPHARMED, priority 2008, published 2011).
Values after ≈ are worked out from the molar mass of the structure shown. Like-named read-outs stand apart in the source and are kept apart here.

Assays:
[1] = tested on: U373 (human glioblastoma-astrocytoma); assay: Growth inhibition, MTT colorimetric assay, U373; type: cell-based; settings: glioma, 3 days with drug, means of six values, unit inferred, read-out: IC50 U373
Method: (§1) Compounds that met the criteria for activity on KB3 cells were further tested for drug growth inhibitory activity in 5 carcinoma, 6 glioma and 3 melanoma cell lines, shown in Table 4. A549 (human lung adenocarcinoma epithelial), BxPC3 (pancreatic cancer), LoVo (colon cancer), MCF-7 (epithelial breast cancer), PC3 (human prostate cancer), Hs683 (human glioma), T98G (glioblastoma), U373 (human glioblastoma-astrocytoma), U138 MG (human glioma), epithelial-like), SKMEL28 (human melanoma), B16-F10 (mouse melanoma) and RhTP (rhabdomyosarcoma) cell lines were cultured in presence of the drugs for 3 days. The cytotoxic activity is expressed as (IC50). Inhibition of cell proliferation measured by the MTT colorimetric assay. The values reported in Table 4 are means of six distinct values. The standard errors are <5% as compared to the mean values.

GL19 = assay: Growth inhibition, MTT colorimetric assay, GL19; type: cell-based; settings: 3 days with drug, means of six values, unit inferred, read-out: IC50 GL19
Method: as §1

SKMEL28 (human melanoma) = assay: Growth inhibition, MTT colorimetric assay, SKMEL-28; type: cell-based; settings: melanoma, 3 days with drug, means of six values, unit inferred, read-out: IC50 SKMEL-28
Method: as §1

Hs683 (human glioma) = assay: Growth inhibition, MTT colorimetric assay, HS683; type: cell-based; settings: glioma, 3 days with drug, means of six values, unit inferred, read-out: IC50 HS683
Method: as §1, with “A549” for “Compounds that met the criteria for activity on KB3 cells were further tested for drug growth inhibitory activity in 5 carcinoma, 6 glioma and 3 melanoma cell lines, shown in Table 4. A549”, “values.” for “values. The standard errors are <5% as compared to the mean values.”

Host = assay: Growth inhibition, MTT colorimetric assay, Host; type: cell-based; settings: 3 days with drug, means of six values, unit inferred, read-out: IC50 Host
Method: as §1

[2] = tested on: bloodstream forms of T. brucei and T. congolense; assay: Trypanocidal activity in vitro, Alamar Blue assay; type: cell-based, Trypanosoma brucei and T. congolense; settings: 48 h total incubation; for GI50: 50% growth inhibition, read-out: GI50; for MIC: lowest concentration at which all cells were killed, read-out: MIC
Excerpt: Trypanosoma brucei and T. congolense are the causative agents of sleeping sickness in humans and nagana in cattle, respectively. The protozoan parasites live extracellularlyin blood and tissue fluids of mammals and are transmitted by the bite of infected tsetse flies (Glossina spp.). Here the trypanocidal activity against bloodstream forms of T. brucei and T. congolense of bis-8-hydroxy quinoline N-substituted benzylamines derivatives was investigated in vitro, according to methods described in. Steverding et al. (2006) Kinetoplastid Biology and Disease, 5(3): 1-5; Hongmance et al., (2007) Antimicrob. Agents Chemother. 51:1105-1106; and Zhao et al., (2005) Bio-org. Med. Chem.; 13: 3921-3926. Cells were seeded into 96-well tissue culture plates in 200 μl medium containing various concentrations of analogues dissolved in H2O. The controls contained the respective solvent alone. […] After 24 h (trypanosomes) or 43 h (HL-60) incubation, 20 μl of the colorimetric viability indicator Alamar Blue® was added to each well. The cells were incubated for a further 24 h (trypanosomes) or 5 h (HL-60) so that the total incubation time was 48 h. Then, the plates were read on a Dynatech MR5000ELISA reader (Denkendorf, Germany),using a test wavelength of 550 nm and a reference wave length of 630 nm. Each test was set up in duplicate and repeated three times. For comparison, the general cytotoxicity of the compounds was assayed with human myeloid leukaemia HL-60 cells. The anti-trypanosomal activities and the general cytotoxicities of the new analogues were evaluated using the Alamar Blue® assay.

[3] = tested on: PC3 (human prostate cancer); assay: Growth inhibition, MTT colorimetric assay, PC3; type: cell-based; settings: carcinoma, 3 days with drug, means of six values, unit inferred, read-out: IC50 PC3
Method: as §1

KaKa = assay: Growth inhibition, MTT colorimetric assay, KaKa; type: cell-based; settings: 3 days with drug, means of six values, unit inferred, read-out: IC50 KaKa
Method: as §1

T98G (glioblastoma) = assay: cells; type: cell-based; settings: glioma, 3 days with drug, means of six values, unit inferred, read-out: IC50 T98G
Method: as §1, with “A549” for “Compounds that met the criteria for activity on KB3 cells were further tested for drug growth inhibitory activity in 5 carcinoma, 6 glioma and 3 melanoma cell lines, shown in Table 4. A549”, “values.” for “values. The standard errors are <5% as compared to the mean values.”

[4] = tested on: BxPC3 (pancreatic cancer); assay: Growth inhibition, MTT colorimetric assay, BxPC3; type: cell-based, human; settings: carcinoma, 3 days with drug, means of six values, unit inferred, read-out: IC50 BxPC3
Method: Cells are cultured at 37° C. in Falcon culture dishes, incubated at 5% CO2 in a suitable culture medium available from Invitrogen Corp. Anti-proliferative activity is determined by an MTT assay (bromide of (3-[4,5-dimethylthiazolium-yl]diphenyltetrazolium)). According to one standard protocol, absorbance is measured at 570 nm (see Dumont et al. (2007) Neoplasia 9: 766-776.
as §1, with “A549” for “Compounds that met the criteria for activity on KB3 cells were further tested for drug growth inhibitory activity in 5 carcinoma, 6 glioma and 3 melanoma cell lines, shown in Table 4. A549”, “values.” for “values. The standard errors are <5% as compared to the mean values.”

RhTP (rhabdomyosarcoma) = assay: Growth inhibition, MTT colorimetric assay, RhTp; type: cell-based; settings: 3 days with drug, means of six values, unit inferred, read-out: IC50 RhTp
Method: as §1

[5] = tested on: KB3 (epitheloid lung cancer) cell lines; assay: Cell growth inhibition (cytotoxicity), MTS assay, KB3 cell line; type: cell-based; settings: Table 3A, MTS assay, triplicate, read-out: KB3 IC50
Method: Cell growth inhibition was determined by the MTS assay; the number of viable cells were proportional to the extent of formazan production in the presence or absence of drugs. […]

B16-F10 (mouse melanoma) = assay: Growth inhibition, MTT colorimetric assay, B16F10; type: cell-based; settings: melanoma, 3 days with drug, means of six values, unit inferred, read-out: IC50 B16F10
Method: as §1

[6] = tested on: A549 (human lung adenocarcinoma epithelial); assay: Growth inhibition, MTT colorimetric assay, A549; type: cell-based; settings: carcinoma, 3 days with drug, means of six values, unit inferred, read-out: IC50 A549
Method: as §1, with “A549” for “Compounds that met the criteria for activity on KB3 cells were further tested for drug growth inhibitory activity in 5 carcinoma, 6 glioma and 3 melanoma cell lines, shown in Table 4. A549”, “values.” for “values. The standard errors are <5% as compared to the mean values.”

[7] = tested on: MCF-7 (epithelial breast cancer); assay: Growth inhibition, MTT colorimetric assay, MCF7; type: cell-based; settings: carcinoma, 3 days with drug, means of six values, unit inferred, read-out: IC50 MCF7
Method: as §1, with “A549” for “Compounds that met the criteria for activity on KB3 cells were further tested for drug growth inhibitory activity in 5 carcinoma, 6 glioma and 3 melanoma cell lines, shown in Table 4. A549”, “values.” for “values. The standard errors are <5% as compared to the mean values.”

U138 MG (human glioma) = assay: Growth inhibition, MTT colorimetric assay, U138; type: cell-based; settings: glioma, 3 days with drug, means of six values, unit inferred, read-out: IC50 U138
Method: as §1

LoVo (colon cancer) = assay: Growth inhibition, MTT colorimetric assay, LoVo; type: cell-based; settings: carcinoma, 3 days with drug, means of six values, unit inferred, read-out: IC50 LoVo
Method: as §1, with “A549” for “Compounds that met the criteria for activity on KB3 cells were further tested for drug growth inhibitory activity in 5 carcinoma, 6 glioma and 3 melanoma cell lines, shown in Table 4. A549”, “values.” for “values. The standard errors are <5% as compared to the mean values.”

Structure (SMILES) | IC50 ([1]; Homo sapiens, U373 MG, 72 h) | IC50 (GL19; GL19, 72 h) | IC50 (SKMEL28 (human melanoma); Homo sapiens, SK-MEL-28, 72 h) | IC50 (Hs683 (human glioma); Homo sapiens, Hs 683, 72 h) | IC50 (Host; 72 h) | GI50 [2] | MIC [2] | IC50 ([3]; Homo sapiens, 72 h) | IC50 (KaKa; 72 h) | IC50 (T98G (glioblastoma); Homo sapiens, T98G, 72 h) | IC50 ([4]; Homo sapiens, BXPC-3, 72 h) | IC50 (RhTP (rhabdomyosarcoma); 72 h) | IC50 ([5]; KB3) | IC50 (B16-F10 (mouse melanoma); Mus musculus, B16-F10, 72 h) | IC50 ([6]; Homo sapiens, A549, 72 h) | IC50 ([7]; Homo sapiens, MCF7, 72 h) | IC50 (U138 MG (human glioma); Homo sapiens, U138-MG, 72 h) | IC50 (LoVo (colon cancer); Homo sapiens, LoVo, 72 h) | further results
Oc1ccc(CN(Cc2cccc(C(F)(F)F)c2)Cc2ccc(O)c3ncccc23)c2cccnc12 [BPM19,189, 5,5′-(3-(trifluoromethyl)benzylazanediyl)bis(methylene)diquinolin-8-ol] | 65 nM | 674 nM | > 10000 nM | 36 nM | 679 nM | 310 ± 10 nM | 1 µM (≈ 0.489 µg/mL) | 37 nM | 6470 nM | 57 nM | 167 nM | 69 nM | 2200 nM | 89 nM | 38 nM | 30 nM | 47 nM | 94 nM | 
Oc1ccc(CN(Cc2ccccc2C(F)(F)F)Cc2ccc(O)c3ncccc23)c2cccnc12 [BPM19,178, 5,5-(2-(Trifluoromethyl)benzylazanediyl)bis(methylene)diquinolin-8-ol] |  |  |  |  |  | 330 ± 10 nM | 1 µM (≈ 0.489 µg/mL) |  |  |  |  |  |  |  |  |  |  |  | IC50 [1]: 78 nM; IC50 (GL19): 472 nM; IC50 (SKMEL28 (human melanoma)): 6380 nM; IC50 (Hs683 (human glioma)): 64 nM; IC50 (Host): 912 nM; IC50 [3]: 179 nM; IC50 (KaKa): 887 nM; IC50 (T98G (glioblastoma)): 210 nM; IC50 [4]: 274 nM; IC50 (RhTP (rhabdomyosarcoma)): 87 nM; IC50 [5]: 100 nM; IC50 (B16-F10 (mouse melanoma)): 98 nM; IC50 [6]: 46 nM; IC50 [7]: 88 nM; IC50 (U138 MG (human glioma)): 80 nM; IC50 (LoVo (colon cancer)): 93 nM
Oc1ccc(CN(Cc2ccccc2)Cc2ccc(O)c3ncccc23)c2cccnc12 [BPM18,725, 5,5′-(benzylazanediyl)bis(methylene)diquinolin-8-ol] | 357 nM | 3450 nM | > 10000 nM | 76 nM | 2160 nM | 300 ± 10 nM | 1 µM (≈ 0.422 µg/mL) | 258 nM | 2430 nM | 249 nM | 7440 nM | 97 nM | 20 nM | 765 nM | 54 nM | 97 nM | 95 nM | 91 nM | 
